According to patent US20020111274A1, “1-alkyl-3-[1-(substituted phenyl) benzotriazol-6-yl] uracils” (BASF Aktiengesellschaft, priority 2000, published 2002):

Experiments:
Set-up in all cases: scale not given here
[1] = tested on: IPOHE Morningglory, Ivyleaf; assay: Postemergence herbicidal evaluation, IPOHE; assay type: in vivo, Ipomoea hederacea, (L.) Jacq.; conditions: postemergence spray, rated about two-three weeks after treatment
In short: (§1)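 Two-week-old seedlings sprayed postemergence with compound in 80/20 acetone/water plus 1.0% methylated seed oil, at about 0.006–0.400 kg/ha, through a nozzle at 40 psi. Plants kept under greenhouse conditions and visually rated about two–three weeks after treatment; ratings from repeat tests averaged.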

ECHOG Barnyardgrass [2] = assay: Preemergence herbicidal evaluation, ECHOG; assay type: in vivo, Echinochloa crus-galli, (L.) Beau; conditions: preemergence
In short: (§2)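 Compound applied preemergence as an aqueous acetone spray onto freshly planted cups, dose equivalent approx. 0.013 to 0.800 kg/ha. Evaluation by rating at weeks 4–5.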

[3] = tested on: IPOHE Morningglory, Ivyleaf; assay: Preemergence herbicidal evaluation, IPOHE; assay type: in vivo, Ipomoea hederacea, (L.) Jacq.; conditions: preemergence
In short: as §2

[4] = tested on: CHEAL Lambsquarters, Common; assay: Postemergence herbicidal evaluation, CHEAL; assay type: in vivo, Chenopodium album, L.; conditions: postemergence spray, rated about two-three weeks after treatment
In short: as §1

SETVI Foxtail, Green [5] = assay: Postemergence herbicidal evaluation, SETVI; assay type: in vivo, Setaria viridis, (L.) Beau; conditions: postemergence spray, rated about two-three weeks after treatment
In short: as §1

ZEAMX Corn, Field [6] = assay: Postemergence herbicidal evaluation, ZEAMX; assay type: in vivo, Zea mays, L. (Sammel-Bezeichnung); conditions: postemergence spray, rated about two-three weeks after treatment
In short: as §1

ORYSAT Rice, Tebonnet [7] = assay: Preemergence herbicidal evaluation, ORYSAT; assay type: in vivo, Oryza sativa, (L.); conditions: preemergence
In short: as §2

CASOB Sicklepod [8] = assay: Preemergence herbicidal evaluation, CASOB; assay type: in vivo, Cassia obtusifolia, L.; conditions: preemergence
In short: as §2

ABUTH Velvetleaf [9] = assay: Postemergence herbicidal evaluation, ABUTH; assay type: in vivo, Abutilon theophrasti, Medic.; conditions: postemergence spray, rated about two-three weeks after treatment
In short: as §1

GALAP Galium [10] = assay: Postemergence herbicidal evaluation, GALAP; assay type: in vivo, Galium aparine; conditions: postemergence spray, rated about two-three weeks after treatment
In short: as §1

GLXMAW Soybean, Williams [11] = assay: Postemergence herbicidal evaluation, GLXMAW; assay type: in vivo, Glycine max, (L.) Merr. cv Williams; conditions: postemergence spray, rated about two-three weeks after treatment
In short: as §1

GALAP Galium [12] = assay: Preemergence herbicidal evaluation, GALAP; assay type: in vivo, Galium aparine; conditions: preemergence
In short: as §2

SETVI Foxtail, Green [13] = assay: Preemergence herbicidal evaluation, SETVI; assay type: in vivo, Setaria viridis, (L.) Beau; conditions: preemergence
In short: as §2

AMBEL Ragweed, Common [14] = assay: Postemergence herbicidal evaluation, AMBEL; assay type: in vivo, Ambrosia artemisifolia, L.; conditions: postemergence spray, rated about two-three weeks after treatment
In short: as §1

ORYSAT Rice, Tebonnet [15] = assay: Postemergence herbicidal evaluation, ORYSAT; assay type: in vivo, Oryza sativa, (L.); conditions: postemergence spray, rated about two-three weeks after treatment
In short: as §1

[16] = tested on: TRZAWR Wheat, Winter, cv Riband; assay: Postemergence herbicidal evaluation, TRZAWR; assay type: in vivo, Triticum aestivum; conditions: postemergence spray, rated about two-three weeks after treatment
In short: as §1

AMBEL Ragweed, Common [17] = assay: Preemergence herbicidal evaluation, AMBEL; assay type: in vivo, Ambrosia artemisifolia, L.; conditions: preemergence
In short: as §2

ECHOG Barnyardgrass [18] = assay: Postemergence herbicidal evaluation, ECHOG; assay type: in vivo, Echinochloa crus-galli, (L.) Beau; conditions: postemergence spray, rated about two-three weeks after treatment
In short: as §1

ABUTH Velvetleaf [19] = assay: Preemergence herbicidal evaluation, ABUTH; assay type: in vivo, Abutilon theophrasti, Medic.; conditions: preemergence
In short: as §2

[20] = tested on: CHEAL Lambsquarters, Common; assay: Preemergence herbicidal evaluation, CHEAL; assay type: in vivo, Chenopodium album, L.; conditions: preemergence
In short: as §2

ZEAMX Corn, Field [21] = assay: Preemergence herbicidal evaluation, ZEAMX; assay type: in vivo, Zea mays, L. (Sammel-Bezeichnung); conditions: preemergence
In short: as §2

CASOB Sicklepod [22] = assay: Postemergence herbicidal evaluation, CASOB; assay type: in vivo, Cassia obtusifolia, L.; conditions: postemergence spray, rated about two-three weeks after treatment
In short: as §1

GLXMAW Soybean, Williams [23] = assay: Preemergence herbicidal evaluation, GLXMAW; assay type: in vivo, Glycine max, (L.) Merr. cv Williams; conditions: preemergence
In short: as §2

[24] = tested on: TRZAWR Wheat, Winter, cv Riband; assay: Preemergence herbicidal evaluation, TRZAWR; assay type: in vivo, Triticum aestivum; conditions: preemergence
In short: as §2

CCc1ccccc1-n1nnc2cc(F)c(-n3c(=O)cc(C(F)(F)F)n(C)c3=O)cc21 [Example 25]
Postemergence herbicidal rating IPOHE ([1]; 0.008 kg/ha): 2.0
Postemergence herbicidal rating IPOHE ([1]; 0.016 kg/ha): 3.0
Postemergence herbicidal rating IPOHE ([1]; 0.032 kg/ha): 9.0
Postemergence herbicidal rating IPOHE ([1]; 0.062 kg/ha): 9.0
ECHCG herbicidal rating (ECHOG Barnyardgrass [2]; rate 0.016 kg/ha): 0.0
ECHCG herbicidal rating (ECHOG Barnyardgrass [2]; rate 0.032 kg/ha): 0.0
ECHCG herbicidal rating (ECHOG Barnyardgrass [2]; rate 0.062 kg/ha): 2.0
ECHCG herbicidal rating (ECHOG Barnyardgrass [2]; rate 0.125 kg/ha): 8.0
IPOHE herbicidal rating ([3]; rate 0.016 kg/ha): 0.0
IPOHE herbicidal rating ([3]; rate 0.032 kg/ha): 4.5
IPOHE herbicidal rating ([3]; rate 0.062 kg/ha): 5.5
IPOHE herbicidal rating ([3]; rate 0.125 kg/ha): 6.5
Postemergence herbicidal rating CHEAL ([4]; 0.008 kg/ha): 3.0
Postemergence herbicidal rating CHEAL ([4]; 0.016 kg/ha): 9.0
Postemergence herbicidal rating CHEAL ([4]; 0.032 kg/ha): 9.0
Postemergence herbicidal rating CHEAL ([4]; 0.062 kg/ha): 9.0
Postemergence herbicidal rating SETVI (SETVI Foxtail, Green [5]; 0.008 kg/ha): 0.0
Postemergence herbicidal rating SETVI (SETVI Foxtail, Green [5]; 0.016 kg/ha): 0.0
Postemergence herbicidal rating SETVI (SETVI Foxtail, Green [5]; 0.032 kg/ha): 3.0
Postemergence herbicidal rating SETVI (SETVI Foxtail, Green [5]; 0.062 kg/ha): 7.0
Postemergence herbicidal rating ZEAMX (ZEAMX Corn, Field [6]; 0.008 kg/ha): 3.0
Postemergence herbicidal rating ZEAMX (ZEAMX Corn, Field [6]; 0.016 kg/ha): 3.5
Postemergence herbicidal rating ZEAMX (ZEAMX Corn, Field [6]; 0.032 kg/ha): 4.0
Postemergence herbicidal rating ZEAMX (ZEAMX Corn, Field [6]; 0.062 kg/ha): 5.0
ORYSAT herbicidal rating (ORYSAT Rice, Tebonnet [7]; rate 0.016 kg/ha): 0.0
ORYSAT herbicidal rating (ORYSAT Rice, Tebonnet [7]; rate 0.032 kg/ha): 0.0
ORYSAT herbicidal rating (ORYSAT Rice, Tebonnet [7]; rate 0.062 kg/ha): 0.0
ORYSAT herbicidal rating (ORYSAT Rice, Tebonnet [7]; rate 0.125 kg/ha): 1.5
CASOB herbicidal rating (CASOB Sicklepod [8]; rate 0.016 kg/ha): 0.0
CASOB herbicidal rating (CASOB Sicklepod [8]; rate 0.032 kg/ha): 0.0
CASOB herbicidal rating (CASOB Sicklepod [8]; rate 0.062 kg/ha): 1.5
CASOB herbicidal rating (CASOB Sicklepod [8]; rate 0.125 kg/ha): 2.0
Postemergence herbicidal rating ABUTH (ABUTH Velvetleaf [9]; 0.008 kg/ha): 6.0
Postemergence herbicidal rating ABUTH (ABUTH Velvetleaf [9]; 0.016 kg/ha): 8.0
Postemergence herbicidal rating ABUTH (ABUTH Velvetleaf [9]; 0.032 kg/ha): 9.0
Postemergence herbicidal rating ABUTH (ABUTH Velvetleaf [9]; 0.062 kg/ha): 9.0
Postemergence herbicidal rating GALAP (GALAP Galium [10]; 0.008 kg/ha): 0.0
Postemergence herbicidal rating GALAP (GALAP Galium [10]; 0.016 kg/ha): 0.0
Postemergence herbicidal rating GALAP (GALAP Galium [10]; 0.032 kg/ha): 4.0
Postemergence herbicidal rating GALAP (GALAP Galium [10]; 0.062 kg/ha): 4.0
Postemergence herbicidal rating GLXMAW (GLXMAW Soybean, Williams [11]; 0.008 kg/ha): 3.0
Postemergence herbicidal rating GLXMAW (GLXMAW Soybean, Williams [11]; 0.016 kg/ha): 4.5
Postemergence herbicidal rating GLXMAW (GLXMAW Soybean, Williams [11]; 0.032 kg/ha): 5.0
Postemergence herbicidal rating GLXMAW (GLXMAW Soybean, Williams [11]; 0.062 kg/ha): 6.5
GALAP herbicidal rating (GALAP Galium [12]; rate 0.016 kg/ha): 0.0
GALAP herbicidal rating (GALAP Galium [12]; rate 0.032 kg/ha): 0.0
GALAP herbicidal rating (GALAP Galium [12]; rate 0.062 kg/ha): 0.0
GALAP herbicidal rating (GALAP Galium [12]; rate 0.125 kg/ha): 0.0
SETVI herbicidal rating (SETVI Foxtail, Green [13]; rate 0.016 kg/ha): 0.0
SETVI herbicidal rating (SETVI Foxtail, Green [13]; rate 0.032 kg/ha): 3.5
SETVI herbicidal rating (SETVI Foxtail, Green [13]; rate 0.062 kg/ha): 9.0
SETVI herbicidal rating (SETVI Foxtail, Green [13]; rate 0.125 kg/ha): 9.0
Postemergence herbicidal rating AMBEL (AMBEL Ragweed, Common [14]; 0.008 kg/ha): 0.0
Postemergence herbicidal rating AMBEL (AMBEL Ragweed, Common [14]; 0.016 kg/ha): 0.0
Postemergence herbicidal rating AMBEL (AMBEL Ragweed, Common [14]; 0.032 kg/ha): 2.0
Postemergence herbicidal rating AMBEL (AMBEL Ragweed, Common [14]; 0.062 kg/ha): 2.0
Postemergence herbicidal rating ORYSAT (ORYSAT Rice, Tebonnet [15]; 0.008 kg/ha): 0.5
Postemergence herbicidal rating ORYSAT (ORYSAT Rice, Tebonnet [15]; 0.016 kg/ha): 1.0
Postemergence herbicidal rating ORYSAT (ORYSAT Rice, Tebonnet [15]; 0.032 kg/ha): 1.5
Postemergence herbicidal rating ORYSAT (ORYSAT Rice, Tebonnet [15]; 0.062 kg/ha): 2.0
Postemergence herbicidal rating TRZAWR ([16]; 0.008 kg/ha): 1.5
Postemergence herbicidal rating TRZAWR ([16]; 0.016 kg/ha): 2.5
Postemergence herbicidal rating TRZAWR ([16]; 0.032 kg/ha): 3.0
Postemergence herbicidal rating TRZAWR ([16]; 0.062 kg/ha): 3.0
AMBEL herbicidal rating (AMBEL Ragweed, Common [17]; rate 0.016 kg/ha): 0.0
AMBEL herbicidal rating (AMBEL Ragweed, Common [17]; rate 0.032 kg/ha): 0.0
AMBEL herbicidal rating (AMBEL Ragweed, Common [17]; rate 0.062 kg/ha): 1.0
AMBEL herbicidal rating (AMBEL Ragweed, Common [17]; rate 0.125 kg/ha): 3.5
Postemergence herbicidal rating ECHCG (ECHOG Barnyardgrass [18]; 0.008 kg/ha): 0.0
Postemergence herbicidal rating ECHCG (ECHOG Barnyardgrass [18]; 0.016 kg/ha): 0.0
Postemergence herbicidal rating ECHCG (ECHOG Barnyardgrass [18]; 0.032 kg/ha): 0.0
Postemergence herbicidal rating ECHCG (ECHOG Barnyardgrass [18]; 0.062 kg/ha): 0.0
ABUTH herbicidal rating (ABUTH Velvetleaf [19]; rate 0.016 kg/ha): 3.0
ABUTH herbicidal rating (ABUTH Velvetleaf [19]; rate 0.032 kg/ha): 6.0
ABUTH herbicidal rating (ABUTH Velvetleaf [19]; rate 0.062 kg/ha): 6.0
ABUTH herbicidal rating (ABUTH Velvetleaf [19]; rate 0.125 kg/ha): 9.0
CHEAL herbicidal rating ([20]; rate 0.016 kg/ha): 9.0
CHEAL herbicidal rating ([20]; rate 0.032 kg/ha): 9.0
CHEAL herbicidal rating ([20]; rate 0.062 kg/ha): 9.0
CHEAL herbicidal rating ([20]; rate 0.125 kg/ha): 9.0
ZEAMX herbicidal rating (ZEAMX Corn, Field [21]; rate 0.016 kg/ha): 0.0
ZEAMX herbicidal rating (ZEAMX Corn, Field [21]; rate 0.032 kg/ha): 0.0
ZEAMX herbicidal rating (ZEAMX Corn, Field [21]; rate 0.062 kg/ha): 2.0
ZEAMX herbicidal rating (ZEAMX Corn, Field [21]; rate 0.125 kg/ha): 4.0
Postemergence herbicidal rating CASOB (CASOB Sicklepod [22]; 0.008 kg/ha): 0.0
Postemergence herbicidal rating CASOB (CASOB Sicklepod [22]; 0.016 kg/ha): 0.0
Postemergence herbicidal rating CASOB (CASOB Sicklepod [22]; 0.032 kg/ha): 0.0
Postemergence herbicidal rating CASOB (CASOB Sicklepod [22]; 0.062 kg/ha): 1.0
GLXMAW herbicidal rating (GLXMAW Soybean, Williams [23]; rate 0.016 kg/ha): 0.0
GLXMAW herbicidal rating (GLXMAW Soybean, Williams [23]; rate 0.032 kg/ha): 0.0
GLXMAW herbicidal rating (GLXMAW Soybean, Williams [23]; rate 0.062 kg/ha): 2.0
GLXMAW herbicidal rating (GLXMAW Soybean, Williams [23]; rate 0.125 kg/ha): 1.5
TRZAWR herbicidal rating ([24]; rate 0.016 kg/ha): 0.0
TRZAWR herbicidal rating ([24]; rate 0.032 kg/ha): 0.0
TRZAWR herbicidal rating ([24]; rate 0.062 kg/ha): 0.0
TRZAWR herbicidal rating ([24]; rate 0.125 kg/ha): 2.0
